# Laboratory results from patent US9649313B2, “Use of ITK inhibitors for the treatment of cancer” (The University of North Carolina at Chapel Hill, priority 2012, dated 2017).
# Key:
# PMWK (ITKLO) cell line = assay: soft agar assay (anchorage independent growth); format: cell-based, Human
# Protocol: (§1) FIG. 5A-5C. Effects of BI 10N inhibitor on proliferation and motility of melanoma cells. FIG. 5A) Cell motility assays were performed as described in FIG. 4A-4E; however, the inhibitor BI 10N was added to the media to decrease ITK kinase activity in parental cell lines instead of using the shRNA ITK knockdown cell lines. BI 10N was added to the media 24 hours prior to the start of the motility assay and the VivaView camera system was used to image cellular motility of the melanoma cells as described previously. FIG. 5B) The proliferation assays were completed as described in FIG. 4A-4E, substituting the BI 10N compound for the shRNA. Cells were trypsinized and counted using the Invitrogen Countess. Fifty thousand cells were placed into each well of a 6 well plate and BI 10N was added to the indicated concentrations. The cells were counted with the Invitrogen Countess at 3, 5, and 6 or 7 days after plating to assess the proliferation rates of the different cell lines in the presence of BI 10N. FIG. 5C) Both ITKHI (RPMI 8322) and ITKLO (PMWK) melanoma cell lines were grown in the presence of BI 10N (10-200 nM) in soft agar. In 24-well cell culture plates 2,500 cells per well were added to a 1.4% agarose solution. The agarose and cell solution was then poured on top of a solidified base agar. The cells were incubated at 37° C. for three to four weeks to ensure adequate growth before analysis. FIG. 5D) Cell cycle analysis of PMWK, VMM 39, and RPMI 8322 cells that have been treated with increasing concentrations of BI 10N. Following 3 days of BI 10N treatment, the cells were incubated with EdU for 3 hours and were subsequently assessed for 5-ethynyl-2′-deoxyuridine (EdU) incorporation rate and DNA content with FxCycle Violet. Shown in this panel are the percentages of cells in G0/G1 (low DNA and EdU content), S (high EdU and low-to-medium DNA content), and G2/M (Low EdU and high DNA content)
# (§2) Soft agar assays were performed employing the RPMI 8322, VMM 39, PMWK, and A375 cell lines. In 24-well cell culture plates (BD Falcon), a 2.0% base agar solution in the appropriate cell line media was poured and allowed to solidify. Tissue culture cells were then trypsinized from their flask, counted using the Countess® Automated Cell Counter, and 2,500 cells per well were added to a 1.4% agarose solution then poured on top of the solidified base agar. Each of the […] layers in the culture plate wells contained BI 10N in the indicated concentrations. The cells were incubated at 37° C. for three to four weeks to ensure adequate growth. 3-(4,5-dimethylthiazol-2-yl)-2,5-diphenyltetrazolium bromide (MTT) was then added in order to perform colony counts using Image J photo processing software.
# [1] = system: RPMI 8322 (ITKHI) cell line; assay: soft agar assay (anchorage independent growth); format: cell-based, Human
# Protocol: as §1, §2
# [2] = Homo sapiens, 672 h, three to four weeks, read-out: amount needed to decrease the number of colonies formed by 50%
smiles,measurement,setting,value
CC(C)C(C)CNCc1ccc2c(c1)[nH]/c(=N\C(=O)c1ccc(C3=CN=NC3)s1)n2CC(C)(C)O (stereo not shown) [BI 10N],anchorage-independent growth,PMWK (ITKLO) cell line,strongly decreased
same,IC50,PMWK (ITKLO) cell line; [2],25 nM
same,anchorage-independent growth,[1],strongly decreased
same,IC50,[1]; [2],50 nM
